Measurements from US11319348B2, “Synthetic beta-amyloid peptides capable of forming stable antigenic oligomers” (The Regents of the University of California, priority 2016, dated 2022).
Non-standard residues stand in square brackets, D forms with d. No end group written: not given here. NMeF = CN[C@@H](Cc1ccccc1)C(=O)O; Orn = NCCC[C@H](N)C(=O)O

How the values were obtained:
SH-SY5Y cells = assay: LDH release assay; format: cell-based, human; details: for LDH release / toxicity toward SH-SY5Y cells, in words / LDH release / lowest concentration with increased LDH release / toxicity (concentrations as low as): SH-SY5Y cells; for LDH release: 72 h
Procedure: Aβ is known to be toxic toward neurons and neuronally derived cells (I. Benilova, et al., 2012, cited supra). To corroborate the toxicity of Aβ, we prepared oligomers of Aβ42 and studied their toxicity toward a human neuroblastoma cell line, SH-SY5Y. Aβ oligomers were prepared according to the procedure developed by Teplow and coworkers using recombinantly expressed Aβ42 pretreated with NH4OH (purchased from rPeptide) (D. B. Teplow, Methods Enzymol. 2006 413, 20-33; and Y. Fezoui, et al., Amyloid. 2000 7, 166-178; the disclosures of which are incorporated herein by reference). Under the conditions of the oligomer preparation, Aβ42 forms predominantly monomer, trimer, and tetramer as assessed by SDS-PAGE (FIG. 28A). It was also observed that bands migrated with molecular weights consistent with a pentamer and hexamer. SH-SY5Y cells were treated with varying concentrations of Aβ42, and toxicity was evaluated using a lactate dehydrogenase (LDH) release assay. Aβ42 increased LDH release in a dose-dependent manner at concentrations as low as 2.5 μM, corroborating the toxicity of Aβ42 (FIG. 28B).
It was hypothesized that trimers 3 and 4 may elicit toxicity similarly to Aβ42. The toxicities of trimers 3 and 4 towards SH-SY5Y cells were evaluated using an LDH assay, using deionized water (vehicle) and peptides 1 and 2 as controls. Trimer 4 increased LDH release in a dose-dependent manner at concentrations as low as 1.5 μM, indicating toxicity toward SH-SY5Y cells (FIG. 29A). LDH release was observed as early as 48 h after addition to the cells and reached a maximum after 72 h.
Many oligomers formed by full-length Aβ are toxic toward cells (I. Benilove, E. Karan, and B. De Strooper, Nat. Neurosci. 2012 15, 349-357; and M. E. Larson and S. E. Lesne J. Neurochem. 2012 120, 125-139; the disclosures of which are incorporated herein by reference). To test whether the oligomers formed by peptide 8 are also toxic, the toxicity of peptide 8 toward neuronally derived SH-SY5Y cells were evaluated using a lactate dehydrogenase (LDH) release assay. Peptide 8 and 10 were compared to investigate how the hexamer-forming Aβ16-36-derived peptide compares to a non-oligomerizing homologue. The toxicity of peptides 2 and 11 were also evaluated to better understand the relationship between oligomerization and toxicity.
The toxicities of peptides 1 and […], and trimers 3 and 4 toward SH-SY5Y cells were assessed by LDH release and caspase-3 activation assays. Cells were incubated in the presence or absence of equivalent concentrations of peptides 1 or 3, or trimers 3 and 4 for 72 h in 96-well plates. The LDH release assay was performed using the Pierce LDH Cytotoxicity Assay Kit from Thermo Scientific. The caspase-3 assay was performed using the Roche APO-One Homogeneous Caspase-3/7 Assay. Experiments were performed in replicates of five and an additional 10 wells were used for controls. Cells were cultured in the inner 60 wells (rows B-G, columns 2-11) of the 96-well plate. DMEM:F12 media (100 μL) was added to the outer wells (rows A and H, columns 1 and 12), in order to ensure the greatest reproducibility of data generated in the inner wells.
A 10 mg/mL stock solution of peptides 1 or […], or trimers 3 and 4 was prepared gravimetrically by dissolving 1 mg of each compound in 100 μL of deionized water that was either filtered through a 0.2 μm syringe filter or autoclaved. The stock solution was used to create 180 μM working solutions of peptides 1 or 3, or 60 μM working solutions of trimers 3 and 4 (these solutions contain equivalent concentrations of peptide). The 180 μM working solutions of peptides 1 and 2 were serially diluted with deionized water to create 90 μM working solutions of peptides 1 and 2. The 60 μM working solutions of trimers 3 and 4 were serially diluted with deionized water to create 30 μM, 15 μM, and 7.5 μM working solutions of trimers 3 and 4.
SH-SY5Y cells were plated in a 96-well plate at 30,000 cells per well. […]

[1] = size exclusion chromatography in sodium acetate buffer; format: physicochemical; details: for oligomer state consistent with SEC elution volume: acetate buffer; for oligomer size by SEC: sodium acetate buffer pH 4.5
Procedure: The elution profiles in acetate buffer of trimers were compared to peptides 1 and 2. Size standards vitamin B12 (1.3 kDa), aprotinin (6.5 kDa), and […] (12.4 kDa) eluted at 18.6 mL, 15.4 mL, and 13.4 mL, respectively (FIG. 31A). Trimer 3 and […] eluted at 14.3 mL and at 14.5 mL, respectively. These elution volumes are consistent with the molecular weight of a hexamer (10.6 kDa). The peaks for trimers 3 and 4 tail slightly and may reflect a trimer-hexamer equilibrium in which the hexamer predominates.
Peptides 1 and 2 elute at 16.8 mL and 17.3 mL, respectively.
The oligomerization of peptides 1 and 2 and trimers 3 and 4 was studied by size-exclusion chromatography (SEC) at 4 CC in 50 mM sodium acetate/50 mM acetic acid buffer (sodium acetate buffer) at pH 4.5 as follows: Each peptide or trimer was dissolved in deionized water to a concentration of 10 mg/mL. The peptide or trimer solutions were then diluted to 1 mg/mL by adding 80 μL of the 10 mg/mL solutions to 720 μL of sodium acetate buffer. The peptide or trimer solutions were loaded onto a GE Superdex 75 10/300 GL column at 0.5 mL/min over 1 min. After loading, the samples were run with sodium acetate buffer at 1 mL/min, Chromatograms were recorded at 214 nm and normalized to the highest absorbance value. Standards (cytochrome C, aprotinin, and vitamin B12) were run in the same fashion.

[2] = after addition to SH-SY5Y cells

| Substance | LDH release / toxicity toward SH-SY5Y cells, in words (SH-SY5Y cells) | LDH release (SH-SY5Y cells) | oligomer state consistent with SEC elution volume [1] | oligomer size by SEC [1] | lowest concentration with increased LDH release / toxicity (concentrations as low as) (SH-SY5Y cells) [µM] | time at which LDH release reached a maximum (SH-SY5Y cells; [2]) [h] | time at which LDH release was first observed (as early as) (SH-SY5Y cells; [2]) [h] |
| --- | --- | --- | --- | --- | --- | --- | --- |
| trimer 3: symmetric tris-disulfide crosslinked trimer generated from peptide 3 (chain 1 [Orn]CVFFCED; chain 2 [Orn]AIIGL[Orn]V; not fully specified (some residues); also: symmetric tris-disulfide crosslinked trimer, macrocyclic by macrolactamization, linkage of strands not given here) | far less LDH release than trimer 4 | some | hexamer | 6 | – | – | – |
| trimer 4: symmetric tris-disulfide crosslinked trimer generated from peptide 4 (chain 1 [Orn]CVF[NMeF]CED; chain 2 [Orn]AIIGL[Orn]V; also: symmetric tris-disulfide crosslinked trimer, macrocyclic by macrolactamization, linkage of strands not given here) | – | yes | hexamer | 6 | 1.5 | 72 | 48 |
| peptide 2: macrocyclic β-sheet peptide: Aβ17-23 and Aβ30-36 strands linked by two δOrn turns, Orn35, N-methyl on F20 (Seq. ID 20-21) | little or no LDH release | no | dimers | 1-2 | 100 | – | – |
| peptide 1: macrocyclic β-sheet peptide: Aβ17-23 and Aβ30-36 strands linked by two δOrn turns, Orn35, N-methyl on G33 (Seq. ID 18-19) | little or no LDH release | no | dimers | 1-2 | – | – | – |
